Assays:
[1] = tested on: human pulmonary fibroblasts (MRC-5); test: Cell viability (MTT) of human pulmonary fibroblasts; format: cell-based; settings: stearic acid 40 uM/mL + TGF-β 5 ng/mL, 24 h, versus TGF-β alone
Protocol: After epithelial cells and fibroblasts were aliquoted into 6-well plates at 2×10^4 cells/well and a stabilization time was imparted for 24 hours, and 15 hours after deficiency, cells were treated with stearic acid (40 uM/mL), TGF-β (5 ng/mL), and stearic acid (40 uM/mL)+TGF-β (5 ng/mL) in this order. After the cells were cultured in an incubator for 24 hours after the treatment, the next-step experiment was performed.
After a 24-hour cell stimulation by the method in Example 1-3 was completed, the medium of epithelial cells and fibroblasts was replaced with a general culture medium, 10 μl of an MTT solution (20 mg/ml) was further added, and then the outside of the plate was wrapped with aluminum foil and cells were cultured in an incubator for 2 hours. […] After 2 hours, cell activation was measured at an absorbance value of 595 nm using an ELISA reader.
For this purpose, after each culture (BEGM(Lonza) in the case of MRC-5, and BMEM (ATCC) in the case of BEAS-2B) of human pulmonary fibroblasts (MRC-5; ATCC® CCL171™) and human pulmonary epithelial cells (BEAS-2B; ATCC® CRL9609™) was treated with stearic acid (40 uM/mL), TGF-β (5 ng/mL; Sigma), or stearic acid (40 uM/mL)+TGF-β (5 ng/mL) by the method described in Example 1-3 for 24 hours, cell viability was measured by the method in Example 1-4. […]

[2] = tested on: pulmonary fibrosis induced by bleomycin; test: Stearic acid in bleomycin-induced pulmonary fibrosis animal model; format: in vivo, mice (C57BL6J)
Source text: Based on the results of Example 2-2, the present inventors attempted to verify the anti-fibrotic effect of stearic acid in an animal model in which pulmonary fibrosis was induced by bleomycin. For this purpose, 6-week-old mice (C57BL6J) were classified into the following 4 groups of 4 or 5 mice, respectively: groups treated with (1) intratracheal saline+vehicle, (2) intratracheal saline+stearic acid, (3) intratracheal 4 units/kg bleomycin+vehicle, and (4) intratracheal bleomycin+stearic acid. Subsequently, mice were anesthetized with 50 mg/kg […] and 5 mg/kg Rompun, followed by infusion of bleomycin and saline into the trachea. The mice were treated with 3 mg/kg stearic acid using oral gavage (zonde) three times a week for 3 weeks. Thereafter, on day 21, lung tissues and blood were collected from the mice and used for the study.

[3] = tested on: p-Smad2/3 and Smad7 in MRC-5 cells; test: p-Smad2/3 and Smad7 expression in fibroblasts; format: cell-based, human; settings: 40 μM stearic acid pre-treatment 16 h, TGF-β1 1 h
Protocol: (§1) The present inventors pre-treated a human pulmonary fibroblast cell line MRC-5 with 40 μM stearic acid for 16 hours, treated the MRC-5 cells with TGF-β1 for 1 hour, and then examined the expression levels of p-Smad2/3 and Smad7 in order to elucidate the anti-fibrotic mechanism of stearic acid in human pulmonary fibroblasts (FIGS. 12A and 12B). Further, to investigate the effect of stearic acid on the production of reactive oxygen species (ROS), MRC-5 cells were pre-treated with 40 μM stearic acid for 16 hours, and cells treated with TGF-β1 for 1 hour were stained with DCF-DA and analyzed by FACS (FIG. 12C). Furthermore, MRC-5 cells were pre-treated with 5 mM N-acetylcysteine (NAC), which is an antioxidant, for 1 hour and treated with TGF-β1 for 1 hour, and then the expression of p-Smad2/3 was examined (FIG. 12D).

[4] = tested on: reactive oxygen species in MRC-5 cells; test: ROS measurement (DCF-DA, FACS); format: cell-based, human; settings: 40 μM stearic acid pre-treatment 16 h, TGF-β1 1 h
Protocol: as §1

[5] = tested on: pulmonary fibrosis induced by bleomycin; test: Combined stearic acid and pirfenidone in bleomycin pulmonary fibrosis animal model; format: in vivo, mice (C57BL/6J); settings: 3 mg/kg stearic acid, 300 mg/kg pirfenidone oral once every 2 days for 2 weeks; versus bleomycin group
Protocol: In addition to the results of the above examples, the present inventors sought to confirm the anti-fibrotic effect by the combined treatment of stearic acid and pirfenidone in a pulmonary fibrosis animal model. For this purpose, 8-week-old mice (C57BL/6J) were anesthetized with 50 mg/kg […] and 5 mg/kg Rompun, followed by injection of bleomycin and saline into the trachea. From 7 days after administration of bleomycin, 3 mg/kg stearic acid, 300 mg/kg pirfenidone or the two drugs were orally administered at the same time once every 2 days for 2 weeks, and changes in mouse body weight were measured up to 21 days after administration of bleomycin.

[6] = tested on: human primary fibroblasts; test: Combined treatment of stearic acid and nintedanib in human primary fibroblasts; format: cell-based; settings: 40 μM stearic acid single treatment versus TGF single treatment
Protocol: The primary fibroblasts derived from the patients with idiopathic pulmonary fibrosis used in the following experiment were cultured for 7 to 10 days while cutting the lung tissue of the patient into 1×1 mm^2 slices, and then periodically exchanging a cell culture solution (Eagle's minimal essential medium; EMEM) supplemented with 100 unit/ml penicillin, 100 μg/ml streptomycin, and 10% fetal bovine serum (FBS) under conditions of 5% CO2 and 37° C., and cells of passage 2 to 5 were used for the experiment. To verify the anti-fibrotic effect by the combined treatment of stearic acid and nintedanib, which is another therapeutic agent for idiopathic pulmonary fibrosis, human primary fibroblasts were respectively or simultaneously treated with 5 ng/ml TGF-β, 40 μM stearic acid, and 1.5 or 2 μM nintedanib for 24 hours, and then the expression levels of collagen type 1 (COL-1) and α-SMA, which are markers of fibrosis, were measured, respectively.

[7] = day 21, stearic acid 3 mg/kg oral

CCCCCCCCCCCCCCCCCC(=O)O [stearic acid]
cell viability of pulmonary fibroblasts [1]: cell viability decreased
reduction in body weight due to bleomycin ([2]; day 7, stearic acid 3 mg/kg oral gavage three times a week): significantly inhibited
expression of p-Smad2/3 in lung tissues [2, 7]: inhibition of an increase in expression of p-Smad2/3
expression of α-SMA in lung tissues [2, 7]: inhibiting an increase in expression of α-SMA
histopathological characteristics of pulmonary fibrosis (H&E) ([2]; day 21, stearic acid 3 mg/kg oral, 3 weeks): remarkably reduced
accumulation of hydroxyproline ([2]; lung tissue, day 21, stearic acid 3 mg/kg oral): inhibiting the accumulation of hydroxyproline
blood level of TGF-β1 ([2]; serum, day 21, stearic acid 3 mg/kg oral): inhibiting an increase in the blood level of TGF-β1
expression of Smad 7 reduced by TGF-β1 [3]: restored
expression of p-Smad2/3 induced by TGF-β1 [3]: inhibited
level of reactive oxygen species induced by TGF-β1 [4]: remarkably reduced
level of hydroxyproline [5]: partially reduced
expression level of COL-1 [6]: no change
expression level of α-SMA [6]: no change

From patent publication US20210205253A1, “Use Of Stearic Acid For Preventing Or Treating Pulmonary Fibrosis” (THE ASAN FOUNDATION, priority 2018, published 2021)
